Laboratory results from ChEMBL document CHEMBL3232928, “Fragment-to-hit-to-lead discovery of a novel pyridylurea scaffold of ATP competitive dual targeting type II topoisomerase inhibiting antibacterial agents” (J Med Chem, 2013).
In brackets after ≈: the same amount, converted by molar mass. Activity calls are given as the source filed them. The calls are words filed in the database; no cut-off is given here.

Legend:
Staphylococcus aureus [1] = assay: Inhibition of DNA synthesis in methicillin-sensitive wild type Staphylococcus aureus over 1 hr by [3H]thymidine incorporation assay; format: functional, organism-based
Streptococcus pneumoniae [2] = assay: Inhibition of protein synthesis in Streptococcus pneumoniae D39 over 1 hr by [14C]leucine incorporation assay; format: functional; settings: D39, 1 h
Streptococcus pneumoniae [3] = assay: Inhibition of RNA synthesis in Streptococcus pneumoniae D39 over 1 hr by [3H]uridine incorporation assay; format: functional
Streptococcus pneumoniae [4] = assay: Inhibition of cell wall synthesis in Streptococcus pneumoniae D39 over 1 hr by [14C]N-acetyl glucosamine incorporation assay; format: functional; settings: D39, 1 h
Streptococcus pneumoniae [5] = assay: Inhibition of fatty acid synthesis in Streptococcus pneumoniae D39 over 1 hr by [14C]acetic acid incorporation assay; format: functional; settings: D39, 1 h
Staphylococcus aureus [6] = assay: Inhibition of RNA synthesis in methicillin-sensitive wild type Staphylococcus aureus over 1 hr by [3H]uridine incorporation assay; format: functional, organism-based
Staphylococcus aureus [7] = assay: Inhibition of protein synthesis in methicillin-sensitive wild type Staphylococcus aureus over 1 hr by [14C]valine incorporation assay; format: functional, organism-based
Staphylococcus aureus [8] = assay: Inhibition of fatty acid synthesis in methicillin-sensitive wild type Staphylococcus aureus over 1 hr by [14C]acetic acid incorporation assay; format: functional, organism-based
Staphylococcus aureus [9] = assay: Inhibition of cell wall synthesis in methicillin-sensitive wild type Staphylococcus aureus over 1 hr by [14C]N-acetyl glucosamine incorporation assay; format: functional, organism-based
Staphylococcus aureus [10] = assay: Inhibition of protein synthesis in methicillin-sensitive wild type Staphylococcus aureus over 1 hr by [14C]leucine incorporation assay; format: functional, organism-based
Streptococcus pneumoniae [11] = assay: Inhibition of protein synthesis in Streptococcus pneumoniae D39 over 1 hr by [14C]valine incorporation assay; format: functional; settings: D39, 1 h
Streptococcus pneumoniae [12] = assay: Inhibition of DNA synthesis in Streptococcus pneumoniae D39 over 1 hr by [3H]thymidine incorporation assay; format: functional
[13] = Antibacterial activity against Streptococcus pneumoniae D39 NCTC 7466 assessed as growth inhibition after 18 to 24 hrs by CLSI broth microdilution method; format: functional
[14] = Solubility of the compound; format: physicochemical
[15] = Clearance in mouse; format: ADME, organism-based; settings: in vivo
Escherichia coli [16] = assay: Antibacterial activity against tolC efflux pump deficient Escherichia coli W3110 assessed as growth inhibition after 18 to 24 hrs by CLSI broth microdilution method; format: functional
[17] = Octanol-phosphate buffer partition coefficient, log D of the compound at pH 7.4 after 1 hr by shake flask method; format: physicochemical
[18] = Inhibition of ATPase activity in Escherichia coli GyrA/GyrB by ammonium molybdate/malachite green-based absorbance assay
Staphylococcus aureus [19] = assay: Resistance factor, ratio of MIC for Staphylococcus aureus drug resistance mutants at 0.05 ug/ml after 7 days to MIC for wild type methicillin-sensitive Staphylococcus aureus at 0.1 ug/ml after 7 days; format: functional
Staphylococcus aureus [20] = assay: Resistance factor, ratio of MIC for Staphylococcus aureus drug resistance mutants at 0.05 ug/ml after 7 days to MIC for wild type methicillin-sensitive Staphylococcus aureus at 0.05 ug/ml after 7 days; format: functional
Staphylococcus aureus [21] = assay: Antibacterial activity against methicillin-resistant and […] Staphylococcus aureus assessed as growth inhibition after 18 to 24 hrs by CLSI broth microdilution method; format: functional
Staphylococcus aureus [22] = assay: Antibacterial activity against Staphylococcus aureus infected in neutropenic mouse thigh model assessed as decrease in bacterial viable counts at 300 mg/kg, ip administered up to 12 hrs; format: functional, organism-based; parameters: dose 300 mg/kg
[23] = Antibacterial activity against fluoroquinolone-resistant Streptococcus pneumoniae D39 NCTC 7466 expressing GyrB/ParE T172A mutant assessed as growth inhibition after 18 to 24 hrs by CLSI broth microdilution method; format: functional
[24] = Antibacterial activity against fluoroquinolone-resistant Streptococcus pneumoniae D39 NCTC 7466 expressing GyrA S81F/ParC S79F double mutant assessed as growth inhibition after 18 to 24 hrs by CLSI broth microdilution method; format: functional
[25] = Antibacterial activity against fluoroquinolone-resistant Streptococcus pneumoniae D39 NCTC 7466 expressing GyrA S81Y/ParC S79F double mutant assessed as growth inhibition after 18 to 24 hrs by CLSI broth microdilution method; format: functional
[26] = Antibacterial activity against fluoroquinolone-resistant Streptococcus pneumoniae D39 NCTC 7466 expressing ParE/GyrB K143I mutant assessed as growth inhibition after 18 to 24 hrs by CLSI broth microdilution method; format: functional
[27] = Unbound fraction in human at 10 uM after 16 hrs by LC-MS/MS analysis; format: ADME; settings: plasma
[28] = Antibacterial activity against fluoroquinolone-resistant Streptococcus pneumoniae D39 NCTC 7466 expressing GyrB K143A/ParE T172A double mutant assessed as growth inhibition after 18 to 24 hrs by CLSI broth microdilution method; format: functional
[29] = Dissociation constant, pKa of the compound; format: physicochemical
[30] = Inhibition of ATPase activity in Escherichia coli ParC/ParE by ammonium molybdate/malachite green-based absorbance assay
[31] = Antibacterial activity against fluoroquinolone-resistant Streptococcus pneumoniae D39 NCTC 7466 expressing GyrA S81F/ParC S79Y double mutant assessed as growth inhibition after 18 to 24 hrs by CLSI broth microdilution method; format: functional
Staphylococcus aureus [32] = assay: Antibacterial activity against ip dosed Staphylococcus aureus infected in neutropenic mouse thigh model assessed as decrease in bacterial viable counts administered up to 12 hrs relative to vehicle-treated control; format: functional, organism-based; settings: Thigh muscle
Staphylococcus aureus [33] = assay: Antibacterial activity against ip dosed Staphylococcus aureus infected in neutropenic mouse thigh model assessed as decrease in bacterial viable counts administered up to 12 hrs; format: functional; settings: Thigh muscle
Staphylococcus aureus [34] = assay: Antibacterial activity against methicillin-sensitive wild type Staphylococcus aureus assessed as growth inhibition after 18 to 24 hrs by CLSI broth microdilution method; format: functional
[35] = Antibacterial activity against fluoroquinolone-resistant Streptococcus pneumoniae D39 NCTC 7466 expressing GyrB T172A/ParE T172A double mutant assessed as growth inhibition after 18 to 24 hrs by CLSI broth microdilution method; format: functional
Moraxella catarrhalis = assay: Antibacterial activity against wild type Moraxella catarrhalis ATCC 43617 assessed as growth inhibition after 18 to 24 hrs by CLSI broth microdilution method; format: functional
[36] = Antibacterial activity against wild type Haemophilus influenzae Rd KW20 ATCC 51907 assessed as growth inhibition after 18 to 24 hrs by CLSI broth microdilution method; format: functional
DNA gyrase subunit B = DNA gyrase subunit B (Staphylococcus aureus, UniProt P0A0K8); assay: Inhibition of ATPase activity in Staphylococcus aureus GyrB tetramer in presence of Escherichia coli GyrA by ammonium molybdate/malachite green-based absorbance assay
DNA gyrase subunit B, sequence (P0A0K8 whole entry): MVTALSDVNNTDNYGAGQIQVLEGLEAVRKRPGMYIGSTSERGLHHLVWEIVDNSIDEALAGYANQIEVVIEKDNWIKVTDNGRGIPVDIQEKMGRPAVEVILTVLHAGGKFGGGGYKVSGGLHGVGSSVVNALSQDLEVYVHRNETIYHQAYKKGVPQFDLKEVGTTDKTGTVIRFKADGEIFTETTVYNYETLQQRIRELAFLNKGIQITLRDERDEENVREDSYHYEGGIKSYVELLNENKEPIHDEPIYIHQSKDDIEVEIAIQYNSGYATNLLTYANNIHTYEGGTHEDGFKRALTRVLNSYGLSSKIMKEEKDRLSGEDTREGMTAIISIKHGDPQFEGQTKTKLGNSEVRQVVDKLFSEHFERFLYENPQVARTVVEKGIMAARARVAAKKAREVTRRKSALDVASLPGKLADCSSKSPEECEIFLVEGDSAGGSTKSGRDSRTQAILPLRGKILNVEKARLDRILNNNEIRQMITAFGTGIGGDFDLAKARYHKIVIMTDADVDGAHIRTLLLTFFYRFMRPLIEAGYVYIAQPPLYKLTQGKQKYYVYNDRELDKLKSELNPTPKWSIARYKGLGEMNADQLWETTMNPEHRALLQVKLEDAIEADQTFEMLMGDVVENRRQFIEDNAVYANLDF

[37] = Inhibition of ATPase activity in Escherichia coli ParE by ammonium molybdate/malachite green-based absorbance assay
Staphylococcus aureus [38] = assay: Antibacterial activity against Staphylococcus aureus infected in neutropenic mouse thigh model assessed as decrease in bacterial viable counts at 300 mg/kg, ip administered up to 12 hrs relative to vehicle-treated control; format: functional; settings: route intraperitoneal
Staphylococcus aureus [39] = assay: Resistance factor, ratio of MIC for Staphylococcus aureus drug resistance mutants at 0.05 ug/ml after 7 days to MIC for wild type methicillin-sensitive Staphylococcus aureus at 0.2 ug/ml after 7 days; format: functional
[40] = Antibacterial activity against fluoroquinolone-resistant Streptococcus pneumoniae D39 NCTC 7466 expressing ParE/GyrB T172A mutant assessed as growth inhibition after 18 to 24 hrs by CLSI broth microdilution method; format: functional
Streptococcus pneumoniae [41] = assay: microbe, parasite or virus in culture
Description: Antibacterial activity against wild type Streptococcus pneumoniae assessed as growth inhibition after 18 to 24 hrs by CLSI broth microdilution method

Escherichia coli [42] = assay: Antibacterial activity against wild type Escherichia coli W3110 assessed as growth inhibition after 18 to 24 hrs by CLSI broth microdilution method; format: functional
[43] = Clearance in rat plasma at 10 mg/kg, iv administered 15 mins of infusion measured for 0 to 24 hrs by LC-MS/MS analysis; format: ADME, organism-based; parameters: dose 10 mg/kg, route intravenous
[44] = Volume of distribution at steady state in rat plasma at 10 mg/kg, iv administered 15 mins of infusion measured for 0 to 24 hrs by LC-MS/MS analysis; format: ADME, organism-based; parameters: dose 10 mg/kg, route intravenous; settings: read-out: Vdss
[45] = Volume of distribution at steady state in mouse; format: ADME, organism-based; settings: in vivo, read-out: Vdss

SMILES: O=C(O)c1cn(C2CC2)c2cc(N3CCNCC3)c(F)cc2c1=O [CIPROFLOXACIN]
- IC50 (Staphylococcus aureus [1]): 3.9 µM
- IC50 (Streptococcus pneumoniae [2]): 110 µM
- IC50 (Streptococcus pneumoniae [3]): > 200 µM
- IC50 (Streptococcus pneumoniae [4]): > 200 µM
- IC50 (Streptococcus pneumoniae [5]): > 200 µM
- IC50 (Staphylococcus aureus [6]): > 195 µM
- IC50 (Staphylococcus aureus [7]): > 195 µM
- IC50 (Staphylococcus aureus [8]): > 195 µM
- IC50 (Staphylococcus aureus [9]): > 195 µM
- IC50 (Staphylococcus aureus [10]): > 174 µM
- IC50 (Streptococcus pneumoniae [11]): > 200 µM
- IC50 (Streptococcus pneumoniae [12]): 28 µM

SMILES: CCNC(=O)Nc1cc(-c2nc(C(F)(F)F)cs2)c(-c2cncc(-c3n[nH]c(=O)o3)c2)cn1
- MIC [13]: 0.05 µg/mL (≈ 0.105 µM)
- solubility [14]: 19 µM (≈ 9.07 µg/mL)
- clearance [15]: 74 mL/min/kg
- MIC (Escherichia coli [16]): 0.15 µg/mL (≈ 0.314 µM)
- logD at 1 h [17]: 2
- IC50 [18]: < 0.01 µM
- Ratio (Staphylococcus aureus [19]): 16
- Ratio (Staphylococcus aureus [20]): 16
- MIC (Staphylococcus aureus [21]): 0.06 µg/mL (≈ 0.126 µM)
- Activity (Staphylococcus aureus [22]): Active
- MIC [23]: 0.01 µg/mL (≈ 0.0209 µM)
- MIC [24]: 0.0025 µg/mL (≈ 0.00524 µM)
- MIC [25]: 0.0025 µg/mL (≈ 0.00524 µM)
- MIC [26]: 0.01 µg/mL (≈ 0.0209 µM)
- fraction unbound at 16 h, 10 µM [27]: 0.044
- MIC [28]: 0.04 µg/mL (≈ 0.0838 µM)
- pKa [29]: 6.6
- IC50 [30]: 0.23 µM
- MIC [31]: 0.0025 µg/mL (≈ 0.00524 µM)
- Activity (Staphylococcus aureus [32]): Dose-dependent effect
- ED50 (Staphylococcus aureus [33]): 200 mg/kg
- MIC (Staphylococcus aureus [34]): 0.04 µg/mL (≈ 0.0838 µM)
- MIC [35]: 0.02 µg/mL (≈ 0.0419 µM)
- MIC (Moraxella catarrhalis): 0.04 µg/mL (≈ 0.0838 µM)
- MIC [36]: 0.69 µg/mL (≈ 1.45 µM)
- IC50 (DNA gyrase subunit B): < 0.01 µM
- IC50 [37]: < 0.01 µM
- fold change (FC) (Staphylococcus aureus [38]): 3000
- Ratio (Staphylococcus aureus [39]): 16
- MIC [40]: 0.01 µg/mL (≈ 0.0209 µM)
- MIC (Streptococcus pneumoniae [41]): 0.0025 µg/mL (≈ 0.00524 µM)
- MIC (Escherichia coli [42]): > 64 µg/mL
- clearance [43]: 36 mL/min/kg
- Vd [44]: 0.66 L/kg
- Vd [45]: 2.6 L/kg

SMILES: CCNC(=O)Nc1cc(-c2nc(C(F)(F)F)cs2)c(-c2cncc(C(N)=O)c2)cn1
- IC50 (Staphylococcus aureus [1]): 1.6 µM
- IC50 (Streptococcus pneumoniae [2]): 0.86 µM
- IC50 (Streptococcus pneumoniae [3]): 0.83 µM
- IC50 (Streptococcus pneumoniae [4]): > 20 µM
- MIC [13]: 0.09 µg/mL (≈ 0.206 µM)
- solubility [14]: 26 µM (≈ 11.3 µg/mL)
- MIC (Escherichia coli [16]): 1.6 µg/mL (≈ 3.67 µM)
- logD at 1 h [17]: 2
- IC50 [18]: 0.017 µM
- MIC (Staphylococcus aureus [21]): 1.4 µg/mL (≈ 3.21 µM)
- IC50 (Streptococcus pneumoniae [5]): > 20 µM
- fraction unbound at 16 h, 10 µM [27]: 0.36
- IC50 [30]: 0.96 µM
- IC50 (Staphylococcus aureus [6]): 6.9 µM
- IC50 (Staphylococcus aureus [7]): 31 µM
- MIC (Staphylococcus aureus [34]): 2.7 µg/mL (≈ 6.19 µM)
- IC50 (Staphylococcus aureus [8]): > 200 µM
- IC50 (Staphylococcus aureus [9]): > 200 µM
- MIC (Moraxella catarrhalis): 0.7 µg/mL (≈ 1.6 µM)
- MIC [36]: 5.5 µg/mL (≈ 12.6 µM)
- IC50 (DNA gyrase subunit B): < 0.01 µM
- IC50 (Staphylococcus aureus [10]): 8.8 µM
- IC50 [37]: 0.012 µM
- IC50 (Streptococcus pneumoniae [11]): 1.2 µM
- IC50 (Streptococcus pneumoniae [12]): 0.46 µM
- MIC (Escherichia coli [42]): > 64 µg/mL
- clearance [43]: 120 mL/min/kg
- Vd [44]: 1.5 L/kg
